These molecules were tested against T1, RORγ (Homo sapiens, UniProt P51449) (assay: RORγ GAL4 reporter gene assay). Conditions: mean pIC50, inhibition of RORγ (GAL4-RORγ-LBD) in 293FT cells, luciferase readout, overnight incubation.
T1 sequence (P51449 269-508 limits assumed): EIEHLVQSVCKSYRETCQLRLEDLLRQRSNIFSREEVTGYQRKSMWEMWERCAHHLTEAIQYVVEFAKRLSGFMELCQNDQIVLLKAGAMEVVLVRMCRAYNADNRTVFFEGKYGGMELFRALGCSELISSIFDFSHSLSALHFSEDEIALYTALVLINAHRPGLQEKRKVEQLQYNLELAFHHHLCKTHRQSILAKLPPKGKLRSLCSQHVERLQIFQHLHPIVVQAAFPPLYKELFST
Description: The RORγ ligand-binding domain (LBD) was fused to the yeast GAL4 DNA binding domain (DBD) and placed under the control of the human cytomegalovirus (CMV) immediate early promoter, using expression vector pFN26A (Promega) and standard recombinant DNA cloning methods.
To monitor the inhibitory effect of compounds on RORγ, a transcriptional reporter construct was used. The pGL4.35 vector (Promega) contains nine copies of the GAL4 Upstream Activator Sequence (UAS). This sequence drives the transcription of the luciferase reporter gene luc2P in response to binding of a fusion protein containing the GAL4 DNA binding domain, as for example expressed by the GAL4-RORγ-LBD and GAL4-VP16 expression vectors described above.
The day after transfection, cells were plated into 96 well plates, test compound was added and the plates were incubated overnight. Subsequently, the firefly luciferase activity was quantified using luciferase detection reagent and luminescence readout.
1500 μL of this reagent mixture was added to 5 μg of GAL4 fusion protein expression vector and 5 μg of the transcriptional reporter construct, and incubated at RT for 20 minutes.
Subsequently, the cells were washed with Phosphate Buffered Saline (PBS) (Lonza), after which the PBS was removed. To dissociate the cells, 1 ml of TrypLE Express (Invitrogen) was added to the flask, followed by incubation at RT until the cells visually started to detach. Cells were collected in 5 mL of assay medium (DMEM culture medium (Lonza), 10% dialyzed FBS (Invitrogen) and Pen/Strep (Lonza)) to achieve a single cell suspension. 10×10^6 cells were spun down and re-suspended in 10 mL of assay medium. Subsequently, the cell suspension was added to the transfection mix tube, and then transferred as a whole to a T75 flask (Greiner), followed by overnight (16-24 hours) incubation at 37° C. and 5% CO2.
For compound screening, the cells were harvested (as described above) and counted. […] 80 μL of cell suspension (60,000 cells) was plated per well into a white, flat bottom, tissue culture treated, 96 well screening plates (Greiner).
Test compounds were diluted, starting from a 10 mM dimethylsulfoxide (DMSO) stock solution, to serial dilutions in DMSO at 500× the final test concentration. Subsequently, these solutions were diluted to 5× the final test concentration in two 10-fold-dilution steps in assay medium. The final DMSO concentration of the 5× test compound solution was 1%. 20 μL of the 5× test compound solution was added to each test well of the 96 well plate previously plated with 80 μl cell suspension, resulting in the final test concentration with 0.2% DMSO.
The plates were incubated overnight (16-24 hours) at 37° C. and 5% CO2.
For the luciferase readout, the luciferase reagent (Britelite Plus, Perkin Elmer) was brought to RT. […] The luciferase luminescence signal was measured using a Wallac Victor Microplate Reader (Perkin Elmer).
The half maximum inhibitory concentration (IC50) values for the test compounds were calculated from the luciferase signal using GraphPad Prism software (GraphPad Software).

Row | SMILES | IC50
1 | O=C(Cc1ccc(S(=O)(=O)CC2CC2)cc1)Nc1ccc(C(O)(C2CC2)C(F)(F)F)cc1 (stereo not shown) [Example 67, N-(4-(1-cyclopropyl-2,2,2-trifluoro-1-hydroxyethyl)phenyl)-2-(4-((cyclopropylmethyl)sulfonyl)phenyl)acetamide] | ≤ 100 nM
2 | O=C(Cc1ccc(S(=O)(=O)CC2CC2)cc1)Nc1ccc(C(O)(CC2CCCC2)C(F)(F)F)cc1 (stereo not shown) [Example 68, N-(4-(3-cyclopentyl-1,1,1-trifluoro-2-hydroxypropan-2-yl)phenyl)-2-(4-((cyclopropylmethyl)sulfonyl)phenyl)acetamide] | ≤ 100 nM
3 | O=C(Cc1ccc(S(=O)(=O)CC2CC2)cc1)Nc1ccc(C(O)(CC2CCCCC2)C(F)(F)F)cc1 (stereo not shown) [Example 69, N-(4-(3-cyclohexyl-1,1,1-trifluoro-2-hydroxypropan-2-yl)phenyl)-2-(4-((cyclopropylmethyl)sulfonyl)phenyl)acetamide] | ≤ 100 nM
4 | O=C(Cc1ccc(S(=O)(=O)CC2CC2)cc1)Nc1ccc(C(O)C(F)(F)F)cc1 (stereo not shown) [Example 70, 2-(4-((cyclopropylmethyl)sulfonyl)phenyl)-N-(4-(2,2,2-trifluoro-1-hydroxyethyl)phenyl)acetamide] | ≤ 1000 nM
5 | CC(O)(c1ccc(NC(=O)Cc2ccc(S(=O)(=O)CC3CC3)cc2)cc1)C(F)(F)F (stereo not shown) [Example 71, 2-(4-((cyclopropylmethyl)sulfonyl)phenyl)-N-(4-(1,1,1-trifluoro-2-hydroxypropan-2-yl)phenyl)acetamide] | ≤ 100 nM
6 | CCCCC(O)(c1ccc(NC(=O)Cc2ccc(S(=O)(=O)CC)cc2)cc1)C(F)(F)F (stereo not shown) [Example 72, 2-(4-(ethylsulfonyl)phenyl)-N-(4-(1,1,1-trifluoro-2-hydroxyhexan-2-yl)phenyl)acetamide] | ≤ 1000 nM
7 | CCS(=O)(=O)c1ccc(CC(=O)Nc2ccc(C(O)(C3CC3)C(F)(F)F)cc2)cc1 (stereo not shown) [Example 73, N-(4-(1-cyclopropyl-2,2,2-trifluoro-1-hydroxyethyl)phenyl)-2-(4-(ethylsulfonyl)phenyl)acetamide] | ≤ 1000 nM
8 | CCS(=O)(=O)c1ccc(CC(=O)Nc2ccc(C(O)(CC3CCCCC3)C(F)(F)F)cc2)cc1 (stereo not shown) [Example 74, N-(4-(3-cyclohexyl-1,1,1-trifluoro-2-hydroxypropan-2-yl)phenyl)-2-(4-(ethylsulfonyl)phenyl)acetamide] | ≤ 1000 nM
9 | O=C(Cc1ccc(S(=O)(=O)CC2CC2)cc1)Nc1ccc(C(O)(C2CCCC2)C(F)(F)F)cc1 (stereo not shown) [Example 75, N-(4-(1-cyclopentyl-2,2,2-trifluoro-1-hydroxyethyl)phenyl)-2-(4-((cyclopropylmethyl)sulfonyl)phenyl)acetamide] | ≤ 10 nM
10 | CC(C)CC(O)(c1ccc(NC(=O)Cc2ccc(S(=O)(=O)NC3CC3)cc2)cc1)C(F)(F)F (stereo not shown) [Example 76, 2-(4-(N-cyclopropylsulfamoyl)phenyl)-N-(4-(1,1,1-trifluoro-2-hydroxy-4-methylpentan-2-yl)phenyl)acetamide] | ≤ 100 nM
11 | CC(O)(c1ccc(NC(=O)Cc2ccc(S(=O)(=O)NC3CC3)cc2)cc1)C(F)(F)F (stereo not shown) [Example 78, 2-(4-(N-cyclopropylsulfamoyl)phenyl)-N-(4-(1,1,1-trifluoro-2-hydroxypropan-2-yl)phenyl)acetamide] | ≤ 1000 nM
12 | CCC(O)(c1ccc(NC(=O)Cc2ccc(S(=O)(=O)NC3CC3)cc2)cc1)C(F)(F)F (stereo not shown) [Example 79, 2-(4-(N-cyclopropylsulfamoyl)phenyl)-N-(4-(1,1,1-trifluoro-2-hydroxybutan-2-yl)phenyl)acetamide] | ≤ 1000 nM

Other lines, results leading:

Row | IC50 | SMILES
13 | ≤ 1000 nM | CCCC(O)(c1ccc(NC(=O)Cc2ccc(S(=O)(=O)NC3CC3)cc2)cc1)C(F)(F)F (stereo not shown) [Example 80, 2-(4-(N-cyclopropylsulfamoyl)phenyl)-N-(4-(1,1,1-trifluoro-2-hydroxypentan-2-yl)phenyl)acetamide]
14 | ≤ 10 nM | CC(C)(C)CC(O)(c1ccc(NC(=O)Cc2ccc(S(=O)(=O)CC3CC3)cc2)cc1)C(F)(F)F (stereo not shown) [Example 82, 2-(4-((cyclopropylmethyl)sulfonyl)phenyl)-N-(4-(1,1,1-trifluoro-2-hydroxy-4,4-dimethylpentan-2-yl)phenyl)acetamide]
15 | ≤ 10 nM | CCC(O)(c1ccc(NC(=O)Cc2ccc(S(=O)(=O)CC3CC3)cc2)cc1)C(F)(F)F (stereo not shown) [Example 83, 2-(4-((cyclopropylmethyl)sulfonyl)phenyl)-N-(4-(1,1,1-trifluoro-2-hydroxybutan-2-yl)phenyl)acetamide]
16 | ≤ 1000 nM | CCS(=O)(=O)c1ccc(CC(=O)Nc2ccc(C(O)(C(F)(F)F)C(F)(F)F)c(Cl)c2)cc1 [Example 84, N-(3-chloro-4-(1,1,1,3,3,3-hexafluoro-2-hydroxypropan-2-yl)phenyl)-2-(4-(ethylsulfonyl)phenyl)acetamide]
17 | ≤ 1000 nM | CCS(=O)(=O)c1ccc(CC(=O)Nc2ccc(C(O)(C3CCCC3)C(F)(F)F)cc2)cc1 (stereo not shown) [Example 85, N-(4-(1-cyclopentyl-2,2,2-trifluoro-1-hydroxyethyl)phenyl)-2-(4-(ethylsulfonyl)phenyl)acetamide]
18 | ≤ 1000 nM | CCS(=O)(=O)c1ccc(CC(=O)Nc2ccc(C(O)(CC3CCCC3)C(F)(F)F)cc2)cc1 (stereo not shown) [Example 86, N-(4-(3-cyclopentyl-1,1,1-trifluoro-2-hydroxypropan-2-yl)phenyl)-2-(4-(ethylsulfonyl)phenyl)acetamide]
19 | ≤ 100 nM | O=C(Cc1ccc(S(=O)(=O)CC2CC2)cc1)Nc1ccc(C(O)(Cc2ccccc2)C(F)(F)F)cc1 (stereo not shown) [Example 87, 2-(4-cyclopropylmethanesulfonylphenyl)-N-[4-(1,1,1-trifluoro-2-hydroxy-3-phenylpropan-2-yl)phenyl]acetamide]
20 | ≤ 100 nM | O=C(Cc1ccc(S(=O)(=O)CC2CC2)cc1)Nc1ccc(C(O)(c2ccccc2)C(F)(F)F)cc1 (stereo not shown) [Example 88, 2-(4-((cyclopropylmethyl)sulfonyl)phenyl)-N-(4-(2,2,2-trifluoro-1-hydroxy-1-phenylethyl)phenyl)acetamide]
21 | ≤ 1000 nM | O=C(Cc1ccc(S(=O)(=O)NC2CC2)cc1)Nc1ccc(C(O)(C(F)(F)F)C(F)(F)F)c(Cl)c1 [Example 89, N-(3-chloro-4-(1,1,1,3,3,3-hexafluoro-2-hydroxypropan-2-yl)phenyl)-2-(4-(N-cyclopropylsulfamoyl)phenyl)acetamide]
22 | ≤ 1000 nM | O=C(Cc1ccc(S(=O)(=O)NC2CC2)cc1)Nc1ccc(C(O)(C2CCCC2)C(F)(F)F)cc1 (stereo not shown) [Example 90, N-(4-(1-cyclopentyl-2,2,2-trifluoro-1-hydroxyethyl)phenyl)-2-(4-(N-cyclopropylsulfamoyl)phenyl)acetamide]
23 | ≤ 100 nM | Cc1cc(S(=O)(=O)CC2CC2)ccc1CC(=O)Nc1ccc(C(O)(C(F)(F)F)C(F)(F)F)cc1 [Example 93, 2-(4-((cyclopropylmethyl)sulfonyl)-2-methylphenyl)-N-(4-(1,1,1,3,3,3-hexafluoro-2-hydroxypropan-2-yl)phenyl)acetamide]
24 | ≤ 100 nM | CC(C)(C)CC(O)(c1ccc(NC(=O)Cc2ccc(S(=O)(=O)NC3CC3)cc2)cc1)C(F)(F)F (stereo not shown) [Example 94, 2-(4-(N-cyclopropylsulfamoyl)phenyl)-N-(4-(1,1,1-trifluoro-2-hydroxy-4,4-dimethylpentan-2-yl)phenyl)acetamide]
25 | ≤ 1000 nM | CC(C)C(O)(c1ccc(NC(=O)Cc2ccc(S(=O)(=O)NC3CC3)cc2)cc1)C(F)(F)F (stereo not shown) [Example 95, 2-(4-(N-cyclopropylsulfamoyl)phenyl)-N-(4-(1,1,1-trifluoro-2-hydroxy-3-methylbutan-2-yl)phenyl)acetamide]

— patent US9738600B2, “ROR gamma (RORγ) modulators” (LEAD PHARMA CEL MODELS IP B.V., priority 2013, dated 2017)
